In this test the target is T1, human PAH with the R408W mutation (Homo sapiens, UniProt P00439, R408W).
T1 construct: expressed in transfected cells
T1 sequence (P00439 1-452 R408W): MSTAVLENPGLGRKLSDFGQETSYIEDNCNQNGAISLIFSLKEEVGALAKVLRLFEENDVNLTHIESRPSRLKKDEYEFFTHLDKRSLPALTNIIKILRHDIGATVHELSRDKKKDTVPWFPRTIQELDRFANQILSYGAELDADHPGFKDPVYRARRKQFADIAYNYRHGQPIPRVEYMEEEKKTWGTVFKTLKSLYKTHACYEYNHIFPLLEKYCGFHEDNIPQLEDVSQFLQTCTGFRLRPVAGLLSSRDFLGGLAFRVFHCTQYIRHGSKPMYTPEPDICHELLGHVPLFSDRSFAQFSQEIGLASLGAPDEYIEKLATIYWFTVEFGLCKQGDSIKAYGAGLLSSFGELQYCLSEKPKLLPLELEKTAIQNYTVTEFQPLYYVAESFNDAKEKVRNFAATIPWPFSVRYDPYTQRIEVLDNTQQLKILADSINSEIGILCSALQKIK
Put plainly: Cell Based Phenylalanine Flux Assay. Conditions: A375 cells expressing human R408W PAH; 24 hrs compound incubation; 13C-Tyrosine by LC-MS; average where tested multiple times; read-out: AC50.

`O=C(c1nnc(-c2ccccn2)o1)N1CCc2[nH]cnc2[C@H]1c1nc2c(F)cccc2s1` [Example 1602, (S)-(4-(4-fluorobenzo[d]thiazol-2-yl)-6,7-dihydro-1H-imidazo[4,5-c]pyridin-5(4H)-yl)(5-(pyridin-2-yl)-1,3,4-oxadiazol-2-yl)methanone]: the AC50 was < 500 nM.
With `Cn1nccc1C(=O)N1CCc2[nH]cnc2[C@H]1c1nc2c(F)cccc2s1` [Example 1603], the AC50 lay within 1000 to 5000 nM.
Then `Cn1nccc1C(=O)N1CCc2[nH]cnc2[C@@H]1c1nc2c(F)cccc2s1` [Example 1604, (R)-(4-(4-fluorobenzo[d]thiazol-2-yl)-6,7-dihydro-1H-imidazo[4,5-c]pyridin-5(4H)-yl)(1-methyl-1H-pyrazol-5-yl)methanone], with > 5000 nM; and `O=C(c1ccnn1-c1ccccc1)N1CCc2[nH]cnc2[C@H]1c1nc2c(F)cccc2s1` [Example 1605], with 500 to 1000 nM; and `O=C(c1ccnn1-c1ccccc1)N1CCc2[nH]cnc2[C@@H]1c1nc2c(F)cccc2s1` [Example 1606, (R)-(4-(4-fluorobenzo[d]thiazol-2-yl)-6,7-dihydro-1H-imidazo[4,5-c]pyridin-5(4H)-yl)(1-phenyl-1H-pyrazol-5-yl)methanone], with 1000 to 5000 nM.
Then `C[C@H]1CN(C(=O)c2ocnc2C2CC2)[C@@H](c2nc3c(F)cccc3s2)c2nc[nH]c21` [Example 1607, (4-cyclopropyloxazol-5-yl)((4R,7S)-4-(4-fluorobenzo[d]thiazol-2-yl)-7-methyl-6,7-dihydro-1H-imidazo[4,5-c]pyridin-5(4H)-yl)methanone], with 1000 to 5000 nM.
For `C[C@H]1CN(C(=O)c2ocnc2C2CC2)[C@H](c2nc3c(F)cccc3s2)c2nc[nH]c21` [Example 1608, (4-cyclopropyloxazol-5-yl)((4S,7S)-4-(4-fluorobenzo[d]thiazol-2-yl)-7-methyl-6,7-dihydro-1H-imidazo[4,5-c]pyridin-5(4H)-yl)methanone], the AC50 was 500 to 1000 nM.
Consider `CN(C)c1nnc(C(=O)N2CCc3[nH]cnc3[C@H]2c2nc3ccccc3s2)o1` [Example 1609], for which the AC50 was < 500 nM.
The result for `CN(C)c1nnc(C(=O)N2CCc3[nH]cnc3[C@@H]2c2nc3ccccc3s2)o1` [Example 1610, (R)-(4-(benzo[d]thiazol-2-yl)-6,7-dihydro-1H-imidazo[4,5-c]pyridin-5(4H)-yl)(5-(dimethylamino)-1,3,4-oxadiazol-2-yl)methanone] reads 1000 to 5000 nM; that for `O=C(c1oc(-c2ccccn2)nc1C(F)(F)F)N1CCc2[nH]cnc2[C@H]1c1nc2c(F)cccc2s1` [Example 1611, (S)-(4-(4-fluorobenzo[d]thiazol-2-yl)-6,7-dihydro-1H-imidazo[4,5-c]pyridin-5(4H)-yl)(2-(pyridin-2-yl)-4-(trifluoromethyl)oxazol-5-yl)methanone], < 500 nM; that for `O=C(c1oc(-c2ccccn2)nc1C(F)(F)F)N1CCc2[nH]cnc2[C@@H]1c1nc2c(F)cccc2s1` [Example 1612, (R)-(4-(4-fluorobenzo[d]thiazol-2-yl)-6,7-dihydro-1H-imidazo[4,5-c]pyridin-5(4H)-yl)(2-(pyridin-2-yl)-4-(trifluoromethyl)oxazol-5-yl)methanone], < 500 nM.
For the compound `Cn1cc(C(=O)N2CCc3[nH]cnc3[C@H]2c2nc3c(F)cccc3s2)c(C(F)(F)F)n1` [Example 1613, (S)-(4-(4-fluorobenzo[d]thiazol-2-yl)-6,7-dihydro-1H-imidazo[4,5-c]pyridin-5(4H)-yl)(1-methyl-3-(trifluoromethyl)-1H-pyrazol-4-yl)methanone], the AC50 is < 500 nM.
In the case of `Cn1cc(C(=O)N2CCc3[nH]cnc3[C@@H]2c2nc3c(F)cccc3s2)c(C(F)(F)F)n1` [Example 1614, (R)-(4-(4-fluorobenzo[d]thiazol-2-yl)-6,7-dihydro-1H-imidazo[4,5-c]pyridin-5(4H)-yl)(1-methyl-3-(trifluoromethyl)-1H-pyrazol-4-yl)methanone], the AC50 is < 500 nM.
For the compound `O=C(c1ocnc1C(F)F)N1CCc2[nH]cnc2[C@H]1c1nc2c(F)cccc2s1` [Example 1615], the AC50 is < 500 nM.
As to `O=C(c1ocnc1C(F)F)N1CCc2[nH]cnc2[C@@H]1c1nc2c(F)cccc2s1` [Example 1616, (R)-(4-(difluoromethyl)oxazol-5-yl)(4-(4-fluorobenzo[d]thiazol-2-yl)-6,7-dihydro-1H-imidazo[4,5-c]pyridin-5(4H)-yl)methanone], the AC50 was 500 to 1000 nM.
The result for `CN(C)Cc1ccc2c(C(=O)N3CCc4[nH]cnc4[C@H]3c3nc4c(F)cccc4s3)cnn2c1` [Example 1619, (S)-(6-((dimethylamino)methyl)pyrazolo[1,5-a]pyridin-3-yl)(4-(4-fluorobenzo[d]thiazol-2-yl)-6,7-dihydro-1H-imidazo[4,5-c]pyridin-5(4H)-yl)methanone] reads 500 to 1000 nM; that for `CN(C)Cc1ccc2c(C(=O)N3CCc4[nH]cnc4[C@@H]3c3nc4c(F)cccc4s3)cnn2c1` [Example 1620, (R)-(6-((dimethylamino)methyl)pyrazolo[1,5-a]pyridin-3-yl)(4-(4-fluorobenzo[d]thiazol-2-yl)-6,7-dihydro-1H-imidazo[4,5-c]pyridin-5(4H)-yl)methanone], > 5000 nM; that for `O=C(c1oc(C2CC2)nc1C(F)F)N1CCc2[nH]cnc2[C@H]1c1nc2ccccc2s1` [Example 1621], < 500 nM.
As for `O=C(c1oc(C2CC2)nc1C(F)F)N1CCc2[nH]cnc2[C@@H]1c1nc2ccccc2s1` [Example 1622, (R)-(4-(benzo[d]thiazol-2-yl)-6,7-dihydro-1H-imidazo[4,5-c]pyridin-5(4H)-yl)(2-cyclopropyl-4-(difluoromethyl)oxazol-5-yl)methanone], the AC50 is < 500 nM.
On to `CN1CCN(c2nc(C(F)(F)F)c(C(=O)N3CCc4[nH]cnc4[C@H]3c3nc4c(F)cccc4s3)o2)CC1` [Example 1623, (S)-(4-(4-fluorobenzo[d]thiazol-2-yl)-6,7-dihydro-1H-imidazo[4,5-c]pyridin-5(4H)-yl)(2-(4-methylpiperazin-1-yl)-4-(trifluoromethyl)oxazol-5-yl)methanone], for which the AC50 is < 500 nM.
In the case of `CN1CCN(c2nc(C(F)(F)F)c(C(=O)N3CCc4[nH]cnc4[C@@H]3c3nc4c(F)cccc4s3)o2)CC1` [Example 1624, (R)-(4-(4-fluorobenzo[d]thiazol-2-yl)-6,7-dihydro-1H-imidazo[4,5-c]pyridin-5(4H)-yl)(2-(4-methylpiperazin-1-yl)-4-(trifluoromethyl)oxazol-5-yl)methanone], the AC50 was < 500 nM.
Take `O=C(c1oc(CCC2CC2)nc1C(F)(F)F)N1CCc2[nH]cnc2[C@H]1c1nc2c(F)cccc2s1` [Example 1625]: the AC50 is < 500 nM.
As for `O=C(c1oc(CCC2CC2)nc1C(F)(F)F)N1CCc2[nH]cnc2[C@@H]1c1nc2c(F)cccc2s1` [Example 1626, (R)-(2-(2-cyclopropylethyl)-4-(trifluoromethyl)oxazol-5-yl)(4-(4-fluorobenzo[d]thiazol-2-yl)-6,7-dihydro-1H-imidazo[4,5-c]pyridin-5(4H)-yl)methanone], the concentration at half-maximal activity (AC50) is < 500 nM.
Consider `O=C(c1oc(CN2CCOCC2)nc1C(F)(F)F)N1CCc2[nH]cnc2[C@H]1c1nc2ccccc2s1` [Example 1627], for which the concentration at half-maximal activity (AC50) was < 500 nM.
In the case of `O=C(c1oc(CN2CCOCC2)nc1C(F)(F)F)N1CCc2[nH]cnc2[C@@H]1c1nc2ccccc2s1` [Example 1628, (R)-(4-(benzo[d]thiazol-2-yl)-6,7-dihydro-1H-imidazo[4,5-c]pyridin-5(4H)-yl)(2-(morpholinomethyl)-4-(trifluoromethyl)oxazol-5-yl)methanone], the AC50 is < 500 nM.
As for `O=C(N1CCc2[nH]cnc2[C@H]1c1nc2ccccc2s1)C1(c2cnco2)CC1` [Example 1629], the AC50 was in the range of 500 to 1000 nM.
Regarding `O=C(c1sc(C2CC2)nc1Cl)N1CCc2[nH]cnc2[C@H]1c1nc2c(F)cccc2s1` [Example 1631], the AC50 lay in the range of 500 to 1000 nM.
For `O=C(c1sc(C2CC2)nc1Cl)N1CCc2[nH]cnc2[C@@H]1c1nc2c(F)cccc2s1` [Example 1632, (R)-(4-chloro-2-cyclopropylthiazol-5-yl)(4-(4-fluorobenzo[d]thiazol-2-yl)-6,7-dihydro-1H-imidazo[4,5-c]pyridin-5(4H)-yl)methanone], the AC50 is 1000 to 5000 nM.
Take `O=C(c1sc(N2CCOCC2)nc1C(F)(F)F)N1CCc2[nH]cnc2[C@H]1c1nc2c(F)cccc2s1` [Example 1633, (S)-(4-(4-fluorobenzo[d]thiazol-2-yl)-6,7-dihydro-1H-imidazo[4,5-c]pyridin-5(4H)-yl)(2-morpholino-4-(trifluoromethyl)thiazol-5-yl)methanone]: the AC50 is < 500 nM.
The result for `O=C(c1sc(N2CCOCC2)nc1C(F)(F)F)N1CCc2[nH]cnc2[C@@H]1c1nc2c(F)cccc2s1` [Example 1634, (R)-(4-(4-fluorobenzo[d]thiazol-2-yl)-6,7-dihydro-1H-imidazo[4,5-c]pyridin-5(4H)-yl)(2-morpholino-4-(trifluoromethyl)thiazol-5-yl)methanone] reads 500 to 1000 nM; that for `O=C(c1conc1C(F)(F)F)N1CCc2[nH]cnc2[C@H]1c1nc2c(F)cccc2s1` [Example 1635, (S)-(4-(4-fluorobenzo[d]thiazol-2-yl)-6,7-dihydro-1H-imidazo[4,5-c]pyridin-5(4H)-yl)(3-(trifluoromethyl)isoxazol-4-yl)methanone], < 500 nM.

The term AC50 denotes the concentration at which the activity in the assay is half-maximal.
